Target: T1, GST-tagged Tnks-2 (873-1166 aa) (Homo sapiens, UniProt Q9H2K2)
T1 construct: GST-tagged Tnks-2 (873-1166 aa, prepared in-house); made in house
Assay: TNKS2 activity ELISA (autoparsylation assay)
Format: biochemical
In short: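 Each GST-tagged enzyme (20 ng/well) was captured overnight at 4 °C on glutathione plates, then auto-ADP-ribosylated with 10 μM biotin-NAD for 1 h at 30 °C, pH 7.7, 0.5% DMSO, compound at 10 concentrations. Streptavidin-HRP chemiluminescence measured the signal. IC50 relative to inhibitor-free reaction, with 5 μM XAV-939 defining zero.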

T1 sequence (Q9H2K2 873-1166): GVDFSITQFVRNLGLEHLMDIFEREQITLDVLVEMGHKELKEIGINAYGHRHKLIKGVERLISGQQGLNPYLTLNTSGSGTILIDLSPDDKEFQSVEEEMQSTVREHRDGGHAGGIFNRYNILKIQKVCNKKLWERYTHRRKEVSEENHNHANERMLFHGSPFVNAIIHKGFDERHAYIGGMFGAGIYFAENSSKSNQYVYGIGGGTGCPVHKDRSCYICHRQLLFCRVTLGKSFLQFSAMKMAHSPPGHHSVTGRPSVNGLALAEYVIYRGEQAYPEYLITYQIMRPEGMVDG

SMILES | IC50
Cc1cccc(N(C)C(=O)N2CCC(C(=O)c3ccccc3)CC2)c1 [Compound A1, 4-benzoyl-piperidine-1-carboxylic acid methyl-m-tolyl-amide] | < 0.3 µM
Cc1ccc(N(C)C(=O)N2CCC(C(=O)c3ccccc3)CC2)cc1 [Compound A2, 4-benzoyl-piperidine-1-carboxylic acid methyl-p-tolyl-amide] | < 0.3 µM
COc1ccc(N(C)C(=O)N2CCC(C(=O)c3ccccc3)CC2)cc1 [Compound A4, 4-benzoyl-piperidine-1-carboxylic acid (4-methoxy-phenyl)-methyl-amide] | < 0.3 µM
COc1ccc(N(C)C(=O)N2CCC(C(=O)c3ccc(C)cc3)CC2)cc1 [Compound A5, 4-(4-methyl-benzoyl)-piperidine-1-carboxylic acid (4-methoxy-phenyl)-methylamide] | < 0.3 µM
COc1ccc(C(=O)C2CCN(C(=O)N(C)c3ccc(OC)cc3)CC2)cc1 [Compound A6, 4-(4-methoxy-benzoyl)-piperidine-1-carboxylic acid (4-methoxy-phenyl)methyl-amide] | < 0.3 µM
COc1ccc(N(C)C(=O)N2CCC(C(=O)c3cccc(F)c3)CC2)cc1 [Compound A7, 4-(3-fluoro-benzoyl)-piperidine-1-carboxylic acid (4-methoxy-phenyl)-methylamide] | < 0.3 µM
COc1ccc(N(C)C(=O)N2CCC(C(=O)c3ccc(F)cc3)CC2)cc1 [Compound A8, 4-(4-fluoro-benzoyl)-piperidine-1-carboxylic acid (4-methoxy-phenyl)-methylamide] | < 0.3 µM
CN(C(=O)N1CCC(C(=O)c2ccccc2)CC1)c1ccc(F)cc1 [Compound A13, 4-benzoyl-piperidine-1-carboxylic acid (4-fluoro-phenyl)-methyl-amide] | < 0.3 µM
CCN(C(=O)N1CCC(C(=O)c2ccccc2)CC1)c1ccc(OC)cc1 [Compound A14, 4-benzoyl-piperidine-1-carboxylic acid ethyl-(4-methoxy-phenyl)-amide] | < 0.3 µM
COc1ccc(N(CCO)C(=O)N2CCC(C(=O)c3ccccc3)CC2)cc1 [Compound A15, 4-benzoyl-piperidine-1-carboxylic acid (2-hydroxy-ethyl)-(4-methoxy-phenyl)amide] | < 0.3 µM
O=C(c1ccccc1)C1CCN(C(=O)N2CCc3ccccc32)CC1 [Compound A16, (4-benzoyl-piperidin-1-yl)-(2,3-dihydro-indol-1-yl)-methanone] | < 0.3 µM
Cc1ccc(C(=O)C2CCN(C(=O)N3CCc4ccccc43)CC2)cc1 [Compound A17, (2,3-dihydro-indol-1-yl)-[4-(4-methyl-benzoyl)-piperidin-1-yl]-methanone] | < 0.3 µM
COc1ccc(C(=O)C2CCN(C(=O)N3CCc4ccccc43)CC2)cc1 [Compound A18, (2,3-dihydro-indol-1-yl)-[4-(4-methoxy-benzoyl)-piperidin-1-yl]-methanone] | < 0.3 µM
CCN(C(=O)N1CCC(C(=O)c2ccc(OC)c(C)c2)CC1)c1ccc(OC)cc1 [Compound A24, 4-(4-methoxy-3-methyl-benzoyl)-piperidine-1-carboxylic acid ethyl-(4-methoxy-phenyl)-amide] | < 0.3 µM
COc1ccc(N(C)C(=O)N2CCC(C(=O)c3cccc(C)c3)CC2)cc1 [Compound A25, 4-(3-methyl-benzoyl)-piperidine-1-carboxylic acid (4-methoxy-phenyl)methyl-amide] | < 0.3 µM
CCN(C(=O)N1CCC(C(=O)c2cccc(C)c2)CC1)c1ccc(OC)cc1 [Compound A26, 4-(3-methyl-benzoyl)-piperidine-1-carboxylic acid ethyl-(4-methoxy-phenyl)amide] | < 0.3 µM
COc1ccc(N(C)C(=O)N2CCC(C(=O)c3cccc(OC)c3)CC2)cc1 [Compound A27, 4-(3-methoxy-benzoyl)-piperidine-1-carboxylic acid (4-methoxy-phenyl)methyl-amide] | < 0.3 µM
CCN(C(=O)N1CCC(C(=O)c2cccc(OC)c2)CC1)c1ccc(OC)cc1 [Compound A28, 4-(3-methoxy-benzoyl)-piperidine-1-carboxylic acid ethyl-(4-methoxy-phenyl)amide] | < 0.3 µM
COc1ccc(N(C)C(=O)N2CCC(C(=O)c3ccc(OC)c(F)c3)CC2)cc1 [Compound A29, 4-(3-fluoro-4-methoxy-benzoyl)-piperidine-1-carboxylic acid (4-methoxy-phenyl)-methyl-amide] | < 0.3 µM
CN(C(=O)N1CCC(C(=O)c2ccc(NS(C)(=O)=O)cc2)CC1)c1ccccc1 [Compound A38, 4-(4-methanesulfonylamino-benzoyl)-piperidine-1-carboxylic acid methyl-phenyl-amide] | < 0.3 µM
CCOC(=O)CN(C(=O)N1CCC(C(=O)c2ccc(OC)cc2)CC1)c1ccccc1 [Compound A40, {[4-(4-methoxy-benzoyl)-piperidine-1-carbonyl]-phenyl-amino}-acetic acid ethyl ester] | < 0.3 µM

Reference: patent US9770446B2, “Piperidine urea derivatives” (MERCK PATENT GMBH, priority 2013, dated 2017)
